For one experiment, the target named is T1, HepI (Escherichia coli, UniProt P24173).
T1 construct: made in house; host or cells: E. coli One Shot BL-21-AI
Briefly: Circular dichroism thermal melt of HepI. The note with it: CD melt, HepI plus ligand alone. In kind it is binding, E. coli K12. How it is done:
Circular dichroism melt experiments were performed in a Jasco J-810 spectropolarimeter in Starna 21-Q-2 cells (minimum volume 400 µL) sealed with Teflon tape to prevent evaporation. Parameters include 3 accumulations of data collected between 195–275 nm as a function of temperature (10–95 °C with 5° increments) at a ramp rate of 2°/min and a scanning rate of 50 nm/min. Samples were prepared by diluting a mixture of 5 μM HepI and some combination of 250 μM substrate/product and/or 100 μM inhibitor in a buffer of 10 mM Tris–HCl and 100 mM KCl (pH = 7.5). CD data was analyzed via in house script written in MATLAB R2018A that average a set of triplicate data, normalizes to a percent unfolded (assuming the protein is fully folded at 5 °C) at 222 nm as a function of temperature and fits to a sigmoid curve to determine the melt temperature (TM).
Background: CD spectra are sensitive to the conformation of chiral molecules.

The target in experiment [1] is T2, Heptosyltransferase I (HepI) WT (Escherichia coli, UniProt P24173).
T2 construct: made in house; host or cells: E. coli One Shot BL-21-AI
T2 sequence (P24173 whole entry): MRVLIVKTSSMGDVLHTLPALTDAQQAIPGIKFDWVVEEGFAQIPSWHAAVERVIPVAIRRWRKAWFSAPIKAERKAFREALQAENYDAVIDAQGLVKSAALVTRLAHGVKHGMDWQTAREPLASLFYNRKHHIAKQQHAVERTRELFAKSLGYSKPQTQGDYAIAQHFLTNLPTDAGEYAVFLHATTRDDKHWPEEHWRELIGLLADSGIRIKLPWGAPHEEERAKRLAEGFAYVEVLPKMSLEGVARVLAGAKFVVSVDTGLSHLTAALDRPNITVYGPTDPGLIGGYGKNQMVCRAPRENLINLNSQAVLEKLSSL
The experiment can be described thus: HepI inhibition, ADP/NADH coupled assay (wild type). The note with it: for kcat: HepI WT in presence of inhibitor; for Ki: 10 μM ODLA, inhibitor varied. It counts as biochemical, E. coli K12. How it is done: As previously reported[11],[14],[15], an ADP/NADH coupled assay was used to monitor HepI activity by monitoring the absorbance change at 340 nm at 37 °C on a Cary Bio 100 UV–Vis Spectrometer. Under normal conditions, the assay buffer was composed of 50 mM HEPES, 50 mM KCl, 10 mM MgCl2, pH 7.5. The coupled enzyme reaction additionally contained 100 μM phosphoenolpyruvate, 100 μM NADH, 100 μM dithiothreitol (DTT) and 0.05 U/μL of both pyruvate kinase and lactate dehydrogenase. 100 μM ADPH was used when ODLA concentration was varied and 100 μM ODLA was used when ADPH was varied. Once a stable baseline was established (~ 5 min), the reaction was initiated by addition of HepI to a final concentration of 50 nM or 100 nM (for high and lower substrate concentrations respectively) and all reported reaction rates are after background subtraction. When running 12 samples at once, plastic cuvette stirs and a repeat pipettor was used to inject 200 μL enzyme. Inhibition of HepI was monitored using the same ADP/NADH coupled assay, all conditions of the assay were the same as previously described unless otherwise stated. Ki values for each of the compounds were determined by varying compound final concentration from 100 μm to 10 nm, and a final concentration of 10 μM ODLA. Competition assays against ADPH were done with excess ODLA (100 μM) and varying ADPH from 2–0.25 μM. Competition assays against ODLA were done with excess ADPH (100 μM) and varying ODLA from 2–0.25 μM. Reactions were started with addition of enzyme and inhibitor was varied from 30–0.01 μM. Kinetics were fit to Lineweaver-Burke (Eq. 1), competitive (Eq. 2), non-competitive (Eq. 3), mixed (Eq. 4), Dixon (Eq. 5), or Cornish-Bowden (Eq. 6) models. All fitting and plotting was done through MATLAB R2018A.1 1/V1/[S]=KM/Vmax[S]+1/Vmax 2 V[S]=Vmax[S]/KM1+[I]/Ki+[S] 3 V[S]=Vmax[S]/1+([I]/Ki)/KM+[S] 4 V[S]=Vmax[S]/KM(1+[I]/Ki)+[S](1+[I]/αKi) 5 1/V[I]=KM1+I/Ki+[S]1+I/αKi/Vmax[S] 6 [S]/V[I]=KM1+I/Ki+[S]1+I/αKi/Vmax

Values joined by “and” are separate entries in the source; they are usually repeats but may differ in a detail not shown here. Equal entries are not always repeated.

T1 sequence (P24173 whole entry): as above

As for `Nc1ncnc2c1ncn2[C@@H]1O[C@H](COP(=O)(O)OP(=O)(O)O)[C@@H](O)[C@H]1O` [ADP, Adenosine disphosphate], the “Melting temperature (Tm) of HepI with ligand” value on HepI is reported as “melts similarly to HepI with ADPH”.

In the case of `Nc1ncnc2c1ncn2[C@@H]1O[C@H](COP(=O)(O)OP(=O)(O)O[C@@H]2O[C@H]([C@@H](O)CO)[C@@H](O)[C@H](O)[C@@H]2O)[C@@H](O)[C@H]1O` [ADPH, ADP-L-glycero-β-D-manno-heptose], on HepI, the “Extent of unfolding of HepI with ligand” value was ~ 100% and the “Melting temperature (Tm) of HepI with ligand” value is “does not induce any changes in the melting temperature”.

As a reminder, the kcat is the maximal rate divided by the concentration of active sites. As usually defined, the Ki is the equilibrium dissociation constant of an inhibitor or competing ligand from its target. A lower Ki goes with a stronger hold on the target. As for `NCC[C@H](O)C(=O)N[C@@H]1C[C@H](N)[C@@H](O[C@H]2O[C@H](CN)[C@@H](O)[C@H](O)[C@H]2O)[C@H](O)[C@H]1O[C@H]1O[C@H](CO)[C@@H](O)[C@H](N)[C@H]1O` [Amikacin], in experiment [1], the “kcat” value came out at 0.138 ± 0.001 s⁻¹. Besides, the inhibitory constant (Ki) in experiment [1] (HepI WT) was 4.3 µM and 4.26 µM.

`NC[C@H]1O[C@H](O[C@H]2[C@H](O)[C@@H](O[C@H]3O[C@H](CO)[C@@H](O)[C@H](N)[C@H]3O)[C@H](N)C[C@@H]2N)[C@H](N)[C@@H](O)[C@@H]1O` [Kanamycin B]: the turnover number (kcat) in experiment [1] was found to be 0.149 ± 0.007 s⁻¹. The compound also had an inhibition constant (Ki) in experiment [1] (HepI WT) of 0.99 ± 0.119 µM. For the same compound, the “Type of inhibition with ODLA” value in experiment [1] (HepI WT, excess ADPH, ODLA varied, Lineweaver–Burk, Dixon, Cornish-Bowden) is on record as “Competitive”.

For the origin of these results see publication PMC9068772, “Discovery of first-in-class nanomolar inhibitors of heptosyltransferase I reveals a new aminoglycoside target and potential alternative mechanism of action” (Scientific Reports, 2022).
